Patent US20220175688A1, “POLYMERIC NANOPARTICLES” (Hillstream BioPharma, Inc., priority 2015, published 2022)

Legend:
breast cancer = details: first-line treatment of locally recurrent or metastatic breast cancer; cited from earlier work
MCF-7/PTX-R = experiment: IC50 in PTX-resistant MCF-7 cells (Example 9); type: cell-based; details: Homo sapiens, MCF7
Source text: (§1) Accordingly, MCF-7 cells resistant to PTX were generated by exposure to increasing PTX concentrations (Table 9).

[1] = Size, zeta potential, % EE of singly or dually loaded PLA72K-PEG-PPG-PEG12.5K NPs; type: physicochemical
Protocol: PTX loaded nanoparticles were produced using an emulsion-solvent evaporation method. Briefly, 50 mg of copolymer in 5 ml acetonitrile (ACN) and 5 mg of PTX (LC Laboratories, Boston, Mass., US) were dissolved in 100 ul ACN and added to 50 mg of PLA-PEG-PPG-PEG solution in 5 ml ACN. The resulting mixture was then added into a 20 ml aqueous phase composed of F127 in distilled water and stirred at room temperature for 6 to 8 hours to facilitate solvent evaporation and nanoparticle stabilization. PTX and NuBCP-9 peptide loaded PLA-PEG-PPG-PEG (50 mg) nanoparticles were prepared by double emulsion process. Paclitaxel was added into the dissolved PLA-PEG-PPG-PEG copolymer followed by immediate addition of peptide with a slight sonication. […]
Nanoparticles were filtered through an Amikon 30-kDa ultrafilter (Millipore, USA) and washed twice with MQ water to remove free drug/dye. […] The filtrate was collected and analyzed for free NuBCP-9 peptide by a Micro-BCA Kit (Pierce Chemicals, USA) and measured on EPOCH microplate reader (BioTek, US) at 590 nm. Similarly, free paclitaxel was measured through high performance liquid chromatography HPLC (Perkin Elmer, US) assay method, using C18 column with acetonitrile, Water, Methanol (60:35:5 volume ratio) as mobile phase. Encapsulation efficiency (EE %) of NuBCP-9 peptide/PTX was determined using the following formula:

[2] = test system: MDA-MB231 breast cancer cells; experiment: In vitro cytotoxicity, XTT cell proliferation assay; type: cell-based; details: Homo sapiens, MDA-MB-231, 72 hrs
Protocol: (§2) D. In vitro cytotoxicity analysis: […] The cells were maintained at 37° C. and 5% CO2 atmosphere for the duration of experiments. Exponentially growing cancer cells were plated into a 96-well plate at a seeding density of 3000 cells per well and incubated for 24 hrs.

[3] = test system: MCF-7 breast cancer cells; experiment: as above; type: cell-based; details: Homo sapiens, MCF7, 72 hrs
Protocol: as §2

Ehrlich tumor = experiment: Antitumor activity in syngeneic Ehrlich tumor model (Example 8); type: in vivo, Balb/c mice; details: 21 days treatment
Protocol: H. Analysis of antitumor activity: Mice Ehrlich tumor cells were injected subcutaneously in the hind limb of syngeneic Balb/c mice (17-22 g). Tumor bearing mice (˜150 mm^3) were divided into 9 groups (6 mice/group) and treated weekly or biweekly intraperitoneally (i.p.) with different formulations for 21 days. Tumor volume was determined by vernier caliper and calculated using the formula (A×B^2)×0.5, where A and B are the longest and shortest tumor diameters, respectively. From each group, 1 mouse was sacrificed on day 7, 14, and 21 for harvesting of tumor for histopathologal examination. The tumors were fixed in 10% formalin/saline and embedded in paraffin. Five-micrometer sections were stained with hematoxylin and eosin for further immunohistochemistry, TUNNEL and Ki67 assay. Statistical analysis of tumor volumes was performed by one-way ANOVA using Graph pad prism. Survival of the mice was determined by the Kaplan-Meier method using Prism 4.0 software (Graph Pad Software).
The in vivo antitumor efficacy and systemic toxicity of the dual-drug and single drug loaded nanoparticles were evaluated on EAT tumor model Balb/c mice. […]

MCF-7/PTX-R cells = experiment: Apoptosis in PTX-resistant cells (Annexin V/PI, FLOW, caspase-3 and PARP cleavage); type: cell-based, Human; details: 100 nM, 48 h
Protocol: Cells were then stained with Annexin V/PI and analyzed by FACS. […] (see Example 9).
Analysis was performed by immunoblotting with anti-caspase-3 CF, anti-PARP CF and anti-β-Actin antibodies (see Example 9).
as §1

[4] = Isoelectric point of peptide; type: physicochemical

Compound | progression-free survival (breast cancer) [months] | IC50 (MCF-7/PTX-R) [µM] | EE % of PTX ([1]; encapsulation efficiency) [%] | IC50 [2] [nM] | IC50 [3] [nM] | Ki67 expression in tumor tissues (Ehrlich tumor) | induction of apoptosis (MCF-7/PTX-R cells) | isoelectric point [4] [pH] | EE % of Peptide ([1]; encapsulation efficiency of NuBCP-9) [%]
CC(=O)O[C@H]1C(=O)[C@@]2(C)[C@H]([C@H](OC(=O)c3ccccc3)[C@]3(O)C[C@H](OC(=O)[C@H](O)[C@@H](NC(=O)c4ccccc4)c4ccccc4)C(C)=C1C3(C)C)[C@]1(OC(C)=O)CO[C@@H]1C[C@@H]2O [PTX, Paclitaxel] | 11 | 1.75 | 87 | 46 | 38 | high | not | – | –
FSRSLHSLL (listed as Homo sapiens) [NuBCP-9] | – | – | – | – | – | – | – | ~7.2 | 64.5
